Experimental data: patent publication US9156815B2, “Salt of (R)-3-(6-amino-pyridin-3-yl)-2-(1-Cyclohexyl-1H-imidazol-4-yl) ethyl propionate” (Sanofi, priority 2011, dated 2015)
Structures can show the parent of a compound that is named as a salt.

Assays:
Assay type in all cases: physicochemical
[1] = Chiral stability, storage for 14 days (chiral HPLC)
Procedure: Representative samples of the crystalline salt of (R)-3-(6-aminopyridin-3-yl)-2-(1-cyclohexyl-1H-imidazol-4-yl)propionic acid ethyl ester with naphthalene-1,5-disulfonic acid prepared as in example 1 are stored for 14 days under the conditions (A), (B), (C) and (D) described in example 4:
The measurements were carried out using chromatography on chiral phase as described in example 1.
Chiral HPLC: (Chiralcel OD-H/84 (250×4.6 mm), heptane:Isopropanol:Acetonitrile 15:1:0.5+0.1% diethylamine (DEA), 30° C., 1 ml/min): Rt=27.01 min.

[2] = Physical stability, storage for 14 days (XRPD, thermogravimetry); conditions: stored 14 days under conditions (A) to (D)
Procedure: Representative samples of the crystalline salt of (R)-3-(6-aminopyridin-3-yl)-2-(1-cyclohexyl-1H-imidazol-4-yl)propionic acid ethyl ester with naphthalene-1,5-disulfonic acid prepared as in example 1 are stored for 14 days under the conditions (A), (B), (C) and (D): • (A) 50° C. • (B) 50° C. and 80% relative atmospheric humidity • (C) 80° C. • (D) 80° C. and 80% relative atmospheric humidity Results:
Only a slight loss in mass during the thermogravimetric measurements (apparatus TA Instruments: TGA Q500, atmospheric nitrogen; rate 10° C./min) is observed, which is attributed to the release of water from the crystals.

[3] = Salt screening of the API with acids and solvents, XRPD measurement; design: key: NKP means no crystalline phase; KFA means free acid crystallizes; conditions: API + acid
Procedure: The molar ratio between the H^+ concentration of the acid and of the API is 2 (for details see table 2). In each cavity of the microtiter plate, 68 microliters of the dissolved API are mixed with 40 microliters of the 0.1 normal acid solutions.
68 microliters of the dissolved API are pipetted into each cavity of a 96 microtiter plate. Then, in each case 40 microliters of the acids dissolved as in table 2 are added according to the scheme as detailed in table 3. The microtiter plate is shaken at room temperature for 20 min so that an equilibrium is formed in the cavities. Evaporation of the solvents at room temperature in a stream of nitrogen for 2 hours. Then, in each case 40 microliters of the solvents according to the scheme as detailed in table 3 are added. The microtiter plate is shaken at room temperature for 20 min so that an equilibrium is formed in the cavities. Evaporation of the solvent then takes place at room temperature in a stream of nitrogen for 2 hours. Finally, XRPD measurement is carried out.

| Compound | increase of the (S) enantiomer ([1]; 14 days, 50° C. (A)) | increase of the (S) enantiomer ([1]; 14 days, 50° C. and 80% relative atmospheric humidity (B)) | change of enantiomeric purity ([1]; 14 days, 80° C. (C)) | increase of the (S) enantiomer ([1]; 14 days, 80° C. and 80% relative atmospheric humidity (D)) | Enantiomeric purity ([1]; 14 days, storage condition (A) 50° C.) | Enantiomeric purity ([1]; 14 days, storage condition (B) 50° C. and 80% relative atmospheric humidity) | Enantiomeric purity ([1]; 14 days, storage condition (C) 80° C.) | Enantiomeric purity ([1]; 14 days, storage condition (D) 80° C. and 80% relative atmospheric humidity) | Enantiomeric purity ([1]; at the start of the measurement) | XRPD measurements at the start and after 14 days [2] | XRPD result of salt screening ([3]; solvent 2-Methyl-1-propanol) | XRPD result of salt screening ([3]; solvent 2-Propanol) | XRPD result of salt screening ([3]; solvent Butyl acetate) | XRPD result of salt screening ([3]; solvent Ethanol) | XRPD result of salt screening ([3]; solvent Methanol) | XRPD result of salt screening ([3]; solvent Methyl ethyl ketone) | XRPD result of salt screening ([3]; solvent Water) | XRPD result of salt screening ([3]; solvent Water:methanol 1:1) |
| --- | --- | --- | --- | --- | --- | --- | --- | --- | --- | --- | --- | --- | --- | --- | --- | --- | --- | --- |
| CCOC(=O)[C@H](Cc1ccc(N)nc1)c1cn(C2CCCCC2)cn1 [Example 1, crystalline salt of (R)-3-(6-aminopyridin-3-yl)-2-(1-cyclohexyl-1H-imidazol-4-yl)propionic acid ethyl ester with naphthalene-1,5-disulfonic acid] | 0.2% | 0.2% | no change | 2.7% | 98.8% | 98.8% | 99.0% | 96.3% | 99.0% | close together |  |  |  |  |  |  |  |  |
| Adipic acid |  |  |  |  |  |  |  |  |  |  | KFA | KFA | KFA | KFA | KFA | KFA | KFA | NKP |
| Benzoic acid |  |  |  |  |  |  |  |  |  |  | KFA | KFA | KFA | KFA | KFA | KFA | KFA | NKP |
| Citric acid |  |  |  |  |  |  |  |  |  |  | NKP | NKP | NKP | NKP | NKP | NKP | NKP | NKP |
| Fumaric acid |  |  |  |  |  |  |  |  |  |  | NKP | NKP | NKP | NKP | NKP | NKP | NKP | NKP |
| Glucuronic acid |  |  |  |  |  |  |  |  |  |  | NKP | NKP | NKP | NKP | NKP | NKP | NKP | NKP |
| Malonic acid |  |  |  |  |  |  |  |  |  |  | NKP | NKP | NKP | NKP | NKP | NKP | NKP | NKP |
| Sulfuric acid |  |  |  |  |  |  |  |  |  |  | NKP | NKP | NKP | NKP | NKP | NKP | NKP | NKP |
| Tartaric acid |  |  |  |  |  |  |  |  |  |  | NKP | NKP | NKP | NKP | NKP | NKP | NKP | NKP |
